# Laboratory results as given in patent publication US9707229B2, “Compositions and methods for treating an infection” (CMPD LICENSING, LLC, priority 2015, dated 2017).
# Columns and labels:
# [1] = system: Aspergillus niger; assay: Expected efficacy of antifungal agents; type: cell-based
# [2] = system: Aspergillus flavus; assay: Expected efficacy of antifungal agents; type: cell-based
# [3] = system: Candida species; assay: Expected efficacy of antifungal agents; type: cell-based
# [4] = system: Aspergillus fumigatus; assay: Expected efficacy of antifungal agents; type: cell-based
# [5] = system: Fusarium species; assay: Expected efficacy of antifungal agents; type: cell-based
# [6] = system: Scedosporium apiospermum; assay: Expected efficacy of antifungal agents; type: cell-based
# [7] = system: Aspergillus terreus; assay: Expected efficacy of antifungal agents; type: cell-based
# [8] = system: Cryptococcus neoformans; assay: Expected efficacy of antifungal agents; type: cell-based
# [9] = system: Blastomyces dermatitidis; assay: Expected efficacy of antifungal agents; type: cell-based
# [10] = system: Sporothrix schenckii; assay: Expected efficacy of antifungal agents; type: cell-based
# [11] = system: Trichophyton mentagrophytes; assay: Expected efficacy of antifungal agents; type: cell-based
# [12] = system: Trichophyton rubrum; assay: Expected efficacy of antifungal agents; type: cell-based
# [13] = system: Coccidioides immitis; type: cell-based; conditions: expected efficacy
# [14] = system: Paracoccidioides brasiliensis; assay: Expected efficacy of antifungal agents; type: cell-based
# [15] = system: Histoplasma duboisii; type: cell-based; conditions: expected efficacy
# [16] = system: Histoplasma capsulatum; type: cell-based; conditions: expected efficacy
# [17] = system: Leishmania donovani; assay: Expected efficacy of antifungal agents; type: cell-based
# [18] = system: Leishmania infantum; assay: Expected efficacy of antifungal agents; type: cell-based
# [19] = system: Enterobacter aerogenes; assay: Expected efficacy of antibiotic agents; type: cell-based; conditions: Gram: neg
# [20] = system: Shigella sonnei; assay: Expected efficacy of antibiotic agents; type: cell-based; conditions: Gram: neg
# [21] = system: Enterobacter sakazakii; assay: Expected efficacy of antibiotic agents; type: cell-based; conditions: Gram: neg
# [22] = system: Morganella morganii; assay: Expected efficacy of antibiotic agents; type: cell-based; conditions: Gram: neg
# [23] = system: Shigella dysenteriae; assay: Expected efficacy of antibiotic agents; type: cell-based; conditions: Gram: neg
# [24] = system: Neisseria meningitidis; assay: Expected efficacy of antibiotic agents; type: cell-based; conditions: Gram: neg
# [25] = system: Francisella tularensis; type: cell-based; conditions: expected efficacy; Gram: neg
# [26] = system: Acinetobacter baumannii; assay: Expected efficacy of antibiotic agents; type: cell-based; conditions: Gram: neg
# [27] = system: Klebsiella pneumoniae; assay: Expected efficacy of antibiotic agents; type: cell-based; conditions: Gram: neg
# [28] = system: Haemophilus ducreyi; assay: Expected efficacy of antibiotic agents; type: cell-based; conditions: Gram: neg
# [29] = system: Legionella pneumophila; type: cell-based; conditions: expected efficacy; Gram: neg
# [30] = system: Corynebacterium jeikeium; assay: Expected efficacy of antibiotic agents; type: cell-based; conditions: Gram: pos
# [31] = system: Proteus vulgaris; assay: Expected efficacy of antibiotic agents; type: cell-based; conditions: Gram: neg
# [32] = system: Proteus mirabilis; assay: Expected efficacy of antibiotic agents; type: cell-based; conditions: Gram: neg
# [33] = system: gram-positive staphylococci and streptococci; conditions: general description, no test given; cited from earlier work
# [34] = system: Yersinia pestis; type: cell-based; conditions: expected efficacy; Gram: neg
# [35] = system: Salmonella typhi; assay: Expected efficacy of antibiotic agents; type: cell-based; conditions: Gram: neg
# [36] = system: Klebsiella (Calymmatobacterium) granulomatis; assay: Expected efficacy of antibiotic agents; type: cell-based; conditions: Gram: neg
# [37] = system: Providencia stuartii; assay: Expected efficacy of antibiotic agents; type: cell-based; conditions: Gram: neg
# [38] = system: Klebsiella oxytoca; assay: Expected efficacy of antibiotic agents; type: cell-based; conditions: Gram: neg
# [39] = system: Brucella species; type: cell-based; conditions: expected efficacy; Gram: neg
# [40] = system: Citrobacter diversus; assay: Expected efficacy of antibiotic agents; type: cell-based; conditions: Gram: neg
# [41] = system: Shigella boydii; assay: Expected efficacy of antibiotic agents; type: cell-based; conditions: Gram: neg
# [42] = system: Staphylococcus aureus (MSSA); assay: Expected efficacy of antibiotic agents; type: cell-based; conditions: Gram: pos
# [43] = system: Bartonella bacilliformis; assay: Expected efficacy of antibiotic agents; type: cell-based; conditions: Gram: neg
# [44] = system: Acinetobacter calcoaceticus; assay: Expected efficacy of antibiotic agents; type: cell-based; conditions: Gram: neg
# [45] = system: Acinetobacter lwoffii; assay: Expected efficacy of antibiotic agents; type: cell-based; conditions: Gram: neg
# [46] = system: Providencia rettgeri; assay: Expected efficacy of antibiotic agents; type: cell-based; conditions: Gram: neg
# [47] = system: Bordetella pertussis; assay: Expected efficacy of antibiotic agents; type: cell-based; conditions: Gram: neg
# [48] = system: Citrobacter freundii; assay: Expected efficacy of antibiotic agents; type: cell-based; conditions: Gram: neg
# [49] = system: Haemophilus influenzae; assay: Expected efficacy of antibiotic agents; type: cell-based; conditions: Gram: neg
# [50] = system: Corynebacterium urealyticum; assay: Expected efficacy of antibiotic agents; type: cell-based; conditions: Gram: pos
# [51] = system: Streptococcus pyogenes; assay: Expected efficacy of antibiotic agents; type: cell-based; conditions: Gram: pos
# [52] = system: Shigella flexneri; assay: Expected efficacy of antibiotic agents; type: cell-based; conditions: Gram: neg
# [53] = system: Moraxella catarrhalis; assay: Expected efficacy of antibiotic agents; type: cell-based; conditions: Gram: neg
# [54] = system: Neisseria gonorrhoeae; assay: Expected efficacy of antibiotic agents; type: cell-based; conditions: Gram: neg
# [55] = system: Escherichia coli; assay: Expected efficacy of antibiotic agents; type: cell-based; conditions: Gram: neg
# [56] = system: Methicillin resistant staph aureus (MRSA); assay: Expected efficacy of antibiotic agents; type: cell-based; conditions: Gram: pos
# [57] = system: Clostridium perfringens; type: cell-based; conditions: expected efficacy; Gram: anaer
# [58] = system: Serratia marcescens; assay: Expected efficacy of antibiotic agents; type: cell-based; conditions: Gram: neg
# [59] = system: Campylobacter jejuni; assay: Expected efficacy of antibiotic agents; type: cell-based; conditions: Gram: neg
# [60] = system: Vibrio cholerae; assay: Expected efficacy of antibiotic agents; type: cell-based; conditions: Gram: neg
# [61] = system: Pseudomonas fluorescens; assay: Expected efficacy of antibiotic agents; type: cell-based; conditions: Gram: neg
# [62] = system: Pseudomonas aeruginosa; assay: Expected efficacy of antibiotic agents; type: cell-based; conditions: Gram: neg
# [63] = system: Rickettsiae; type: cell-based; conditions: expected efficacy; Gram: neg
# [64] = system: Enterobacter cloacae; assay: Expected efficacy of antibiotic agents; type: cell-based; conditions: Gram: neg
compound,measurement,setting,value
C[C@@H](c1ncncc1F)[C@](O)(Cn1cncn1)c1ccc(F)cc1F [Voriconazole],efficacy against Aspergillus niger,[1],yes
same,efficacy against Aspergillus flavus,[2],yes
same,efficacy against Candida species,[3],yes
same,efficacy against Aspergillus fumigatus,[4],yes
same,efficacy against Fusarium species,[5],yes
same,efficacy against Scedosporium apiospermum,[6],yes
same,efficacy against Aspergillus terreus,[7],yes
Itraconazole,efficacy against Cryptococcus neoformans,[8],yes
same,efficacy against Blastomyces dermatitidis,[9],yes
same,efficacy against Sporothrix schenckii,[10],yes
same,efficacy against Trichophyton mentagrophytes,[11],yes
same,efficacy against Aspergillus flavus,[2],yes
same,efficacy against Candida species,[3],yes
same,efficacy against Trichophyton rubrum,[12],yes
same,efficacy against Aspergillus fumigatus,[4],yes
same,efficacy against Coccidioides immitis,[13],yes
same,efficacy against Paracoccidioides brasiliensis,[14],yes
same,efficacy against Histoplasma duboisii,[15],yes
C[C@@H]1[C@H](O)[C@@H](C)/C=C/C=C/C=C/C=C/C=C/C=C/C=C/[C@H](O[C@@H]2O[C@H](C)[C@@H](O)[C@H](N)[C@@H]2O)C[C@@H]2O[C@](O)(C[C@@H](O)C[C@@H](O)[C@H](O)CC[C@@H](O)C[C@@H](O)CC(=O)O[C@H]1C)C[C@H](O)[C@H]2C(=O)O [Amphotericin],efficacy against Cryptococcus neoformans,[8],yes
same,efficacy against Aspergillus niger,[1],yes
same,efficacy against Blastomyces dermatitidis,[9],yes
same,efficacy against Aspergillus flavus,[2],yes
same,efficacy against Candida species,[3],yes
same,efficacy against Aspergillus fumigatus,[4],yes
same,efficacy against Histoplasma capsulatum,[16],yes
same,efficacy against Leishmania donovani,[17],yes
same,efficacy against Coccidioides immitis,[13],yes
same,efficacy against Paracoccidioides brasiliensis,[14],yes
same,efficacy against Aspergillus terreus,[7],yes
same,efficacy against Leishmania infantum,[18],yes
"C/C(=C\C(=O)OCCCCCCCCC(=O)O)C[C@@H]1OC[C@H](C[C@@H]2O[C@H]2[C@@H](C)[C@H](C)O)[C@@H](O)[C@H]1O [Bactroban, Mupirocin]",efficacy against Enterobacter aerogenes,[19],no
same,efficacy against Shigella sonnei,[20],no
same,efficacy against Enterobacter sakazakii,[21],no
same,efficacy against Morganella morganii,[22],no
same,efficacy against Shigella dysenteriae,[23],no
same,efficacy against Neisseria meningitidis,[24],no
same,efficacy against Francisella tularensis,[25],no
same,efficacy against Acinetobacter baumannii,[26],no
same,efficacy against Klebsiella pneumoniae,[27],no
same,efficacy against Haemophilus ducreyi,[28],no
same,efficacy against Legionella pneumophila,[29],no
same,efficacy against Corynebacterium jeikeium,[30],no
same,efficacy against Proteus vulgaris,[31],no
same,efficacy against Proteus mirabilis,[32],no
same,activity against gram-positive staphylococci and streptococci,[33],excellent activity
same,efficacy against Yersinia pestis,[34],no
same,efficacy against Salmonella typhi,[35],no
same,efficacy against Klebsiella (Calymmatobacterium) granulomatis,[36],no
same,efficacy against Providencia stuartii,[37],no
same,efficacy against Klebsiella oxytoca,[38],no
same,efficacy against Brucella species,[39],no
same,efficacy against Citrobacter diversus,[40],no
same,efficacy against Shigella boydii,[41],no
same,efficacy against Staphylococcus aureus (MSSA),[42],yes
same,efficacy against Bartonella bacilliformis,[43],no
same,efficacy against Acinetobacter calcoaceticus,[44],no
same,efficacy against Acinetobacter lwoffii,[45],no
same,efficacy against Providencia rettgeri,[46],no
same,efficacy against Bordetella pertussis,[47],no
same,efficacy against Citrobacter freundii,[48],no
same,efficacy against Haemophilus influenzae,[49],no
same,efficacy against Corynebacterium urealyticum,[50],no
same,efficacy against Streptococcus pyogenes,[51],yes
same,efficacy against Shigella flexneri,[52],no
same,efficacy against Moraxella catarrhalis,[53],no
same,efficacy against Neisseria gonorrhoeae,[54],no
same,efficacy against Escherichia coli,[55],no
same,efficacy against Methicillin resistant staph aureus (MRSA),[56],yes
same,efficacy against Clostridium perfringens,[57],no
same,efficacy against Serratia marcescens,[58],no
same,efficacy against Campylobacter jejuni,[59],no
same,efficacy against Vibrio cholerae,[60],no
same,efficacy against Pseudomonas fluorescens,[61],no
same,efficacy against Pseudomonas aeruginosa,[62],no
same,efficacy against Rickettsiae,[63],no
same,efficacy against Enterobacter cloacae,[64],no
